Assay results published in patent publication US11072596B2, “Poly(ADP-ribose) polymerase inhibitor, preparation method and use” (SELECTION BIOSCIENCE LLC, priority 2017, dated 2021).
pIC50: −log10 of the molar value.

Key:
[1] = Liver microsomal stability in vitro, rat; assay type: in vitro ADME; details: pH 7.4; rat liver microsomes 0.5 mg protein/mL, 1 μM test compound, 37° C.; read-out: Rat T1/2
Procedure: Evaluation of in vitro liver microsomal stability of the compound of the present disclosure was tested by the following method:
Buffer: 100 mM potassium phosphate buffer, pH 7.4; […] MgCl2.
Liver microsomes: human liver microsomes, Corning Cat No. 452117; Rat liver microsomes, Xenotech Cat No. R1000; Mouse liver microsomes, Xenotech Cat No. M1000; Dog liver microsomes, Xenotech Cat No. D1000; Liver microsomes of cynomolgus monkey, Corning Cat No. 452413, the final concentration was 0.5 mg protein/mL.
1. Intermediate solution: 5 μL of compound or control in stock solution (10 mM) was diluted with 495 μL of methanol (concentration: 100 μM, 99% MeOH).
2. Operating solution: the intermediate solution was diluted […] with 450 μL 100 mM potassium phosphate buffer (concentration: 10 μM, 9.9% MeOH).
1. 10 μL of compound or control solution per well was added to all plates (T0, T5, T10, T20, T30, T60, NCF60) except matrix blank.
2. Microsome solution was distributed to 96-well plates according to platemap for standby, 680 μL per well, and the mixture of microsome solution and the compound was incubated at 37° C. for about 10 minutes.
4. […]
10. Data analysis: The peak area of the corresponding compound and internal standard was detected by LC-MS/MS, and the T1/2 of the compound was calculated by the following formula: […]

[2] = target: hERG potassium ion channel (Homo sapiens, UniProt Q12809); experiment: hERG potassium ion channel inhibitory activity (Qpatch, CHO-hERG cells); details: for inhibition at 2.5 min, 40 µM: human
Procedure: CHO-hERG cells were cultured in a 175 cm^2 flask, and when the cell density was increased to 60-80%, the medium was removed and washed with 7 mL of PBS (Phosphate Buffered Saline phosphate buffer), and then digested with 3 mL of Detachin.
The single-cell high impedance sealing and the whole-cell mode formation process were all automatically completed by the Qpatch instrument. After obtaining the whole-cell recording mode, the cells were clamped at −80 mV (millivolt). Before giving a 5-second+40 mV depolarization stimulus, a 50 ms-50 mV pre-voltage was first given, repolarized to −50 mV for 5 seconds, and then returned to −80 mV. This voltage stimulation was applied every 15 seconds. After recording for 2 minutes, extracellular fluid was given for 5 minutes, and then the administration process was started. The compound concentration started from the lowest test concentration, and each test concentration was given for 2.5 minutes. […] At least 3 cells were tested at each concentration (n≥3).
The 20 mM compound mother solution was diluted with extracellular fluid, and 5 μL of 20 mM compound mother solution was added to 2495 μL of extracellular solution, diluted 500-fold to 40 μM, and then sequentially performed 3-fold continuous dilution in an extracellular fluid containing 0.2% DMSO to obtain the final concentration to be tested.
The experimental data were analyzed by XLFit software.

[3] = target: T1, CYP1A2 (Homo sapiens, UniProt P05177); experiment: Inhibition of human liver microsomal CYP450 enzymes, CYP1A2; assay type: in vitro ADME; details: human liver microsomes, substrate Phenacetin 30 μM; Reference = α-naphthoflavone; read-out: IC50 1A2
T1 construct: from tissue; host or cells: human liver microsomes (HLM)
T1 sequence (P05177 1-516): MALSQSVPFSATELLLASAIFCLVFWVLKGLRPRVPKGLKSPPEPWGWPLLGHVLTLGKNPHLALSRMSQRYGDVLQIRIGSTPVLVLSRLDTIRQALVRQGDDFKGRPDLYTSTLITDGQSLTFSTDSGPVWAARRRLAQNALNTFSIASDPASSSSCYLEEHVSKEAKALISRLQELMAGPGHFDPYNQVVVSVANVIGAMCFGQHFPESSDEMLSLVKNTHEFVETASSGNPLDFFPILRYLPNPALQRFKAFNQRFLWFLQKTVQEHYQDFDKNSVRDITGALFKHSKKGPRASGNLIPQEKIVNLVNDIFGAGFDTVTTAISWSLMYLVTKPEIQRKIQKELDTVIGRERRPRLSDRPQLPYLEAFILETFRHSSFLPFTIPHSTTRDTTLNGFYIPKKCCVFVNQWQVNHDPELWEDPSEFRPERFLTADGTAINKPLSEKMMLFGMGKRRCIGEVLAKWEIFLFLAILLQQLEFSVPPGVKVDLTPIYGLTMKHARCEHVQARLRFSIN
Procedure: (§1) The inhibitory effects of the compound of the present disclosure on the CYP450 enzymes of six human subtypes were determined by the following experimental method:
(§2) Reference compounds of each subtype: CYP1A2: α-naphthoflavone; CYP2C9: sulfaphenazole; CYP2C19: omeprazole; CYP3A4: ketoconazole; CYP2D6: quinidine.
(§3) Substrate concentration: CYP1A2: Phenacetin at 30 μM; CYP2C9: Diclofenac at 10 μM; CYP2C19: S-Mephenytoin at 35 μM; CYP3A4: Midazolam at 5 μM and Testosterone at 80 μM; CYP2D6: Bufuralol at 10 μM.
(§4) 6. 0.2 mg/mL of HLM was added to the test wells, 400 μL per well, and then the gradient diluted 400× test compound was added to the corresponding wells.
(§5) 7. 0.2 mg/mL of HLM was added to the test wells, 200 μL per well, and then the gradient-diluted reference inhibitor was added to the corresponding wells. Steps 6 and 7 needed to be performed on ice.
(§6) 8.1. 30 μL of test compound and reference compound were mixed in 0.2 mg/mL of HLM solution (see steps 6 and 7).
(§7) 8.2. 15 μL of 4× substrate solution (see step 4) was added.
(§8) 10. Preheated 8 mM of NADPH solution was added to the 96-well test plate (see step 3) to initiate the reaction, 15 μL per well.
(§9) 11. The test plate was incubated at 37° C.: 3A4 for 5 minutes, each of 1A2, 2C9 and 2D6 for 10 minutes, and 2C19 for 45 minutes.
(§10) 12. ACN containing internal reference was added to stop the reaction, 120 μL per well.
14. […]

[4] = target: T2, CYP2C19 (Homo sapiens, UniProt P33261); experiment: Inhibition of human liver microsomal CYP450 enzymes, CYP2C19; assay type: in vitro ADME; details: human liver microsomes, substrate S-Mephenytoin 35 μM; Reference = omeprazole; read-out: IC50 2C19
T2 construct: from tissue; host or cells: human liver microsomes (HLM)
Procedure: as §1, §2, §3, §4, §5, §6, §7, §8, §9, §10
14. […]

Chain of hERG potassium ion channel (Q12809 whole entry): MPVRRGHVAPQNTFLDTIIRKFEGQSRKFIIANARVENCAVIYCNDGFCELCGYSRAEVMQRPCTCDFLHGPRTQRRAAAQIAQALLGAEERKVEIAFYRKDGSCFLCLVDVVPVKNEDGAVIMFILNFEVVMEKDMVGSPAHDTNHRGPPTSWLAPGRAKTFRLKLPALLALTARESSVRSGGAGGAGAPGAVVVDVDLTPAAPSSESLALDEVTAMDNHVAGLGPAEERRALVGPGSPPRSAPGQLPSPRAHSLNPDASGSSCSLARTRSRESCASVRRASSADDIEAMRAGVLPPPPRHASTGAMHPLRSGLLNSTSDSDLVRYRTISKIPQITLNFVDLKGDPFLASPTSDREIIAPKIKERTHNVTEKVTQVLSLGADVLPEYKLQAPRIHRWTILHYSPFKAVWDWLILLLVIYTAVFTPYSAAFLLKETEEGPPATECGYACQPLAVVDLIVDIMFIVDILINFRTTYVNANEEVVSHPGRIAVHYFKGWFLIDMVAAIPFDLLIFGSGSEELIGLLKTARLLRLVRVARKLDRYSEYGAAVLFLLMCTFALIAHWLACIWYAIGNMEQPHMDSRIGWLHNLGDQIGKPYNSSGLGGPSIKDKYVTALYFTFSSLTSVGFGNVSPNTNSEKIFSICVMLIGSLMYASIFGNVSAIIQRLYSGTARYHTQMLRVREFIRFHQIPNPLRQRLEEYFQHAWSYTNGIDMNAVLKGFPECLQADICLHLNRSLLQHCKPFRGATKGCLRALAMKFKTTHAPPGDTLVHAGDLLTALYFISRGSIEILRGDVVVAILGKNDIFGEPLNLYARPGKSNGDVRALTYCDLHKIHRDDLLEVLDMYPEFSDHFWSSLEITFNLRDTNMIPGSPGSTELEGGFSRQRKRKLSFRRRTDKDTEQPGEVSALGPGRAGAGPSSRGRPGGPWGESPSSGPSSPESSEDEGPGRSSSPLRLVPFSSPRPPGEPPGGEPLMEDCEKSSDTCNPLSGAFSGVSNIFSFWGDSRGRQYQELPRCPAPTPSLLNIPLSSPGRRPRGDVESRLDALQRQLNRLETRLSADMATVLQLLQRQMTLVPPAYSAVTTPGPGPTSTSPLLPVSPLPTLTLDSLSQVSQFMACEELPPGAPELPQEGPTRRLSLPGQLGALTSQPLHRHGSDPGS
T2 sequence (P33261 whole entry): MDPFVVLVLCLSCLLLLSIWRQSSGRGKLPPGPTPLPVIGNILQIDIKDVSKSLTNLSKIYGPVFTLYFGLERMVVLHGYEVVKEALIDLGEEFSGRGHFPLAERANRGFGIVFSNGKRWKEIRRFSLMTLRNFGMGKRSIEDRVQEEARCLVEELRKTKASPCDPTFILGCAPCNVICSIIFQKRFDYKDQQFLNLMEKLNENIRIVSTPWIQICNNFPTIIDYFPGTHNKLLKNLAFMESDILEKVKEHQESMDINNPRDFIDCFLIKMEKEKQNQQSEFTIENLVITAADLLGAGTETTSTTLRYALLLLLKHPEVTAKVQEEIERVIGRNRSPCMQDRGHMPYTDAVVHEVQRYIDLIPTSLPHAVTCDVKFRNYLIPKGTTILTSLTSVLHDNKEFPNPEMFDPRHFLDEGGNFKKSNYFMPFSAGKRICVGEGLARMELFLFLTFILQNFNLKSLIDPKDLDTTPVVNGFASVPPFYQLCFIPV

SMILES | half-life at 1 μM [1] [h] | pIC50 [2] | inhibition at 2.5 min, 40 µM ([2]; CHO cells that express hERG (CHO-hERG)) [%] | pIC50 [3] | pIC50 [4] | inhibition at 2.5 min, 40 µM [2] [%]
NC(=O)c1cccc2cn(-c3ccc([C@@H]4CCCNC4)cc3)nc12 [Niraparib, reference compound] | 1.76 | 4.40 | 50.4 | < 5.00 | < 5.00 | 
NC(=O)c1cccc2cn(-c3ccc([C@]4(F)CCCNC4)cc3)nc12 (single isomer, unassigned) [Example 23, (R or S)-2-(4-(3-fluoropiperidin-3-yl)phenyl)-2H-indazole-7-carboxamide] | 1.07 | < 4.40 |  | < 5.00 | < 5.00 | 29.8
